Laboratory results published in patent US12577257B2, “Heterocyclic compounds” (Hoffmann-La Roche Inc., priority 2018, dated 2026).

These compounds were tested against T1, MAGL (Homo sapiens, UniProt Q99685) (assay: 2-AG assay: MAGL hydrolysis of 2-arachidonoylglycerol to arachidonic acid, followed by mass spectrometry). Settings: footnote [a]: measured in 2-AG assay.
T1 sequence (Q99685 1-303): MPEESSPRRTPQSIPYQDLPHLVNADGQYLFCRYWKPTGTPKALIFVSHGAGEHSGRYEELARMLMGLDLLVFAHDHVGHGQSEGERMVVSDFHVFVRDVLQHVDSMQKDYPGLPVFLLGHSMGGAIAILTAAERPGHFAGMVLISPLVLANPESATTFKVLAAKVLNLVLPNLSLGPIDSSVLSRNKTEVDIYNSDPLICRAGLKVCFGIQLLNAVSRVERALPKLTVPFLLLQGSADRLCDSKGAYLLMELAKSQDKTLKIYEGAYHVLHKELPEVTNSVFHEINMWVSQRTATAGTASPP
Format: biochemical
Experimental: Alternatively, compounds were profiled for MAGL inhibitory activity by determining the enzymatic activity by following the hydrolysis of the natural substrate 2-arachidonoylglycerol resulting in arachidonic acid, which can be followed by mass spectrometry. This assay is hereinafter abbreviated “2-AG assay”.
The 2-AG assay was carried out in 384 well assay plates (PP, Greiner Cat #784201) in a total volume of 20 μL. Compound dilutions were made in 100% DMSO (VWR Chemicals 23500.297) in a polypropylene plate in 3-fold dilution steps to give a final concentration range in the assay from 12.5 μM to […]. 0.25 μL compound dilutions (100% DMSO) were added to 9 μL MAGL in assay buffer (50 mM TRIS (GIBCO, 15567-027), 1 mM EDTA (Fluka, 03690-100 ml), 0.01% (v/v) Tween. After shaking, the plate was incubated for 15 min at RT. To start the reaction, 10 μL 2-arachidonoylglycerol in assay buffer was added. The final concentrations in the assay was […] and 8 μM 2-arachidonoylglycerol. After shaking and 30 min incubation at RT, the reaction was quenched by the addition of 40 μL of acetonitrile containing 4 μM of d8-arachidonic acid. The amount of arachidonic acid was traced by an online SPE system (Agilent Rapidfire) coupled to a triple quadrupole mass spectrometer (Agilent 6460). A C18 SPE cartridge (G9205A) was used in an acetonitrile/water liquid setup. The mass spectrometer was operated in negative electrospray mode following the mass transitions 303.1→259.1 for arachidonic acid and 311.1→267.0 for d8-arachidonic acid. The activity of the compounds was calculated based on the ratio of intensities [arachidonic acid/d8-arachidonic acid].

SMILES	IC50 [nM]
O=C1CO[C@H]2CCN(C(=O)N3CC4(CC(Oc5ccc(F)cc5Cl)C4)C3)C[C@H]2N1 [Example 1, (4aR,8aS)-6-(6-(2-Chloro-4-fluorophenoxy)-2-azaspiro[3.3]heptane-2-carbonyl)hexahydro-2H-pyrido[4,3-b][1,4]oxazin-3(4H)-one]	4.5
O=C1CO[C@H]2CCN(C(=O)N3CC4(CC(Oc5ccc(C(F)(F)F)cc5)C4)C3)C[C@H]2N1 [Example 2, (4aR,8aS)-6-(6-(4-(Trifluoromethyl)phenoxy)-2-azaspiro[3.3]heptane-2-carbonyl)hexahydro-2H-pyrido[4,3-b][1,4]oxazin-3(4H)-one]	5
O=C1CO[C@H]2CCN(C(=O)N3CC4(CC(Oc5ccc(C(F)(F)F)cc5F)C4)C3)C[C@H]2N1 [Example 3, (4aR,8aS)-6-(6-(2-Fluoro-4-(trifluoromethyl)phenoxy)-2-azaspiro[3.3]heptane-2-carbonyl)hexahydro-2H-pyrido[4,3-b][1,4]oxazin-3(4H)-one]	2.3
O=C1CO[C@H]2CCN(C(=O)N3CC4(CC(Oc5ccc(OC(F)(F)F)cc5F)C4)C3)C[C@H]2N1 [Example 4, (4aR,8aS)-6-(6-(2-Fluoro-4-(trifluoromethoxy)phenoxy)-2-azaspiro[3.3]heptane-2-carbonyl)hexahydro-2H-pyrido[4,3-b][1,4]oxazin-3(4H)-one]	3
O=C1CO[C@H]2CCN(C(=O)N3CC4(CC(Oc5ccc(OC(F)(F)F)cc5Cl)C4)C3)C[C@H]2N1 [Example 5, (4aR,8aS)-6-(6-(2-Chloro-4-(trifluoromethoxy)phenoxy)-2-azaspiro[3.3]heptane-2-carbonyl)hexahydro-2H-pyrido[4,3-b][1,4]oxazin-3(4H)-one]	0.6
COc1ccc(C(F)(F)F)cc1OC1CC2(C1)CN(C(=O)N1CC[C@@H]3OCC(=O)N[C@@H]3C1)C2 [Example 6, (4aR,8aS)-6-(6-(2-Methoxy-5-(trifluoromethyl)phenoxy)-2-azaspiro[3.3]heptane-2-carbonyl)hexahydro-2H-pyrido[4,3-b][1,4]oxazin-3(4H)-one]	2.8
O=C1CO[C@H]2CCN(C(=O)N3CC4(CC(Oc5ccc(Cl)cc5C(F)(F)F)C4)C3)C[C@H]2N1 [Example 7, (4aR,8aS)-6-(6-(4-Chloro-2-(trifluoromethyl)phenoxy)-2-azaspiro[3.3]heptane-2-carbonyl)hexahydro-2H-pyrido[4,3-b][1,4]oxazin-3(4H)-one]	8.5
O=C1CO[C@H]2CCN(C(=O)N3CC4(CC(Oc5ccc(F)cc5F)C4)C3)C[C@H]2N1 [Example 8, (4aR,8aS)-6-(6-(2,4-Difluorophenoxy)-2-azaspiro[3.3]heptane-2-carbonyl)hexahydro-2H-pyrido[4,3-b][1,4]oxazin-3(4H)-one]	10.7
O=C1CO[C@H]2CCN(C(=O)N3CC4(CC(Oc5cc(F)cc(C(F)(F)F)c5)C4)C3)C[C@H]2N1 [Example 9, (4aR,8aS)-6-(6-(3-Fluoro-5-(trifluoromethyl)phenoxy)-2-azaspiro[3.3]heptane-2-carbonyl)hexahydro-2H-pyrido[4,3-b][1,4]oxazin-3(4H)-one]	12.5
O=C1CO[C@H]2CCN(C(=O)N3CCC4(CC3)CC(Oc3ccc(C(F)(F)F)cc3F)C4)C[C@H]2N1 [Example 10, (4aR,8aS)-6-(2-(2-Fluoro-4-(trifluoromethyl)phenoxy)-7-azaspiro[3.5]nonane-7-carbonyl)hexahydro-2H-pyrido[4,3-b][1,4]oxazin-3(4)-one]	0.8
O=C1CO[C@H]2CCN(C(=O)N3CC4(CN(Cc5ccc(F)cc5Cl)C4)C3)C[C@H]2N1 [Example 11, (4aR,8aS)-6-(6-(2-Chloro-4-fluorobenzyl)-2,6-diazaspiro[3.3]heptane-2-carbonyl)hexahydro-2H-pyrido[4,3-b][1,4]oxazin-3(4H)-one]	19.8

Results, then the compound that gave them:

IC50 [nM]	SMILES
316	O=C1CO[C@H]2CCN(C(=O)N3CCC4(CC3)C[C@@H](NS(=O)(=O)c3ccccc3)CO4)C[C@H]2N1 (mixture of isomers) [Example 18, rac-(4aR,8aS)—N—((R)-8-(3-oxooctahydro-2H-pyrido[4,3-b][1,4]oxazine-6-carbonyl)-1-oxa-8-azaspiro[4.5]decan-3-yl)benzenesulfonamide]
821	O=C1CO[C@H]2CCN(C(=O)N3CCC4(CC3)C[C@H](NS(=O)(=O)c3ccccc3)CO4)C[C@H]2N1 (mixture of isomers) [Example 19, rac-(4aR,8aS)-N-((S)-8-(3-oxooctahydro-2H-pyrido[4,3-b][1,4]oxazine-6-carbonyl)-1-oxa-8-azaspiro[4.5]decan-3-yl)benzenesulfonamide]
416	O=C1CO[C@H]2CCN(C(=O)N3CCC4(CC3)CC(NCc3ccc(F)cc3Cl)CO4)C[C@H]2N1 (mixture of isomers) [Example 38, rac-(4aR,8aS)-6-(3-((2-Chloro-4-fluorobenzyl)amino)-1-oxa-8-azaspiro[4.5]decane-8-carbonyl)hexahydro-2H-pyrido[4,3-b][1,4]oxazin-3(4H)-one]
129	CN(Cc1ccc(F)cc1Cl)C1COC2(CCN(C(=O)N3CC[C@@H]4OCC(=O)N[C@@H]4C3)CC2)C1 (single isomer, unassigned) [Example 33]
133	CN(Cc1ccc(F)cc1Cl)C1COC2(CCN(C(=O)N3CC[C@@H]4OCC(=O)N[C@@H]4C3)CC2)C1 (single isomer, unassigned) [Example 34]
182	O=C1CO[C@H]2CCN(C(=O)N3CCC4(CC3)CC(NCc3ccc(F)cc3Cl)CO4)C[C@H]2N1 (single isomer, unassigned) [Example 35]
279	O=C1CO[C@H]2CCN(C(=O)N3CCC4(CC3)CC(NCc3ccc(F)cc3Cl)CO4)C[C@H]2N1 (single isomer, unassigned) [Example 36]
47.5	O=C1CO[C@H]2CCN(C(=O)N3CCC4(CC3)CC(NS(=O)(=O)c3ccc(C(F)(F)F)cc3)CO4)C[C@H]2N1 (stereo in doubt) [Example 29, N-((S)-8-((4aR,8aS)-3-Oxooctahydro-2H-pyrido[4,3-b][1,4]oxazine-6-carbonyl)-1-oxa-8-azaspiro[4.5]decan-3-yl)-4-(trifluoromethyl)benzenesulfonamide]
51.3	O=C1CO[C@H]2CCN(C(=O)N3CCC4(CC3)CC(NS(=O)(=O)c3ccc(F)cc3Cl)CO4)C[C@H]2N1 (stereo in doubt) [Example 31, 2-Chloro-4-fluoro-N-((S)-8-((4aR,8aS)-3-oxooctahydro-2H-pyrido[4,3-b][1,4]oxazine-6-carbonyl)-1-oxa-8-azaspiro[4.5]decan-3-yl)benzenesulfonamide]
124	O=C1CO[C@H]2CCN(C(=O)N3CCC4(CC3)CC(NS(=O)(=O)c3cccc(C(F)(F)F)c3)CO4)C[C@H]2N1 (stereo in doubt) [Example 32, N-((S)-8-((4aR,8aS)-3-Oxooctahydro-2H-pyrido[4,3-b][1,4]oxazine-6-carbonyl)-1-oxa-8-azaspiro[4.5]decan-3-yl)-3-(trifluoromethyl)benzenesulfonamide]
466	O=C1CO[C@H]2CCN(C(=O)N3CC4(CC(Oc5ccc(F)cc5Cl)C4)C3)C[C@H]2N1 (stereo in doubt) [Example 41, (4aR,8aS)-6-(6-(2-Chloro-4-fluorophenoxy)-2-azaspiro[3.3]heptane-2-carbonyl)hexahydro-2H-pyrido[4,3-b][1,4]oxazin-3(4H)-one]
